This note sets out measurements from ChEMBL document CHEMBL5465560, “Selectivity Literature for EUbOPEN Chemogenomic Library” (2024).

In data set [1] the test system is Epidermal growth factor receptor (Homo sapiens), P00533 [L858R,T790M]. As to conditions: at 10 µM.
Data set [2] addresses Casein kinase II subunit alpha (Homo sapiens, UniProt P68400). Put plainly: Selectivity interaction (KinomeScan (DiscoverX)) EUB0000092b CSNK2A1. As to conditions: at 10 µM.
In data set [3] the target is Casein kinase I isoform delta (Homo sapiens, UniProt P48730). As to the kind of experiment: Selectivity interaction (KinomeScan (DiscoverX)) EUB0001049a CSNK1D. To be noted: at 1 µM.
The target in another data set is KCNQ1 (Homo sapiens, UniProt P51787). Put plainly: Selectivity interaction (Panel of kinases, GPCRs, ion channels and transporters (enzymatic assay)) EUB0000223bCl KCNQ1.
The target of data set [4] is Dual specificity mitogen-activated protein kinase kinase 1 (Homo sapiens, UniProt Q02750). Put plainly: Selectivity interaction (KinomeScan (DiscoverX)) EUB0000695a MAP2K1. As to conditions: at 100 nM.
The target of data set [5] is T1, Tyrosine-protein kinase ITK/TSK (Homo sapiens) (UniProt Q08881).
T1 sequence (whole entry): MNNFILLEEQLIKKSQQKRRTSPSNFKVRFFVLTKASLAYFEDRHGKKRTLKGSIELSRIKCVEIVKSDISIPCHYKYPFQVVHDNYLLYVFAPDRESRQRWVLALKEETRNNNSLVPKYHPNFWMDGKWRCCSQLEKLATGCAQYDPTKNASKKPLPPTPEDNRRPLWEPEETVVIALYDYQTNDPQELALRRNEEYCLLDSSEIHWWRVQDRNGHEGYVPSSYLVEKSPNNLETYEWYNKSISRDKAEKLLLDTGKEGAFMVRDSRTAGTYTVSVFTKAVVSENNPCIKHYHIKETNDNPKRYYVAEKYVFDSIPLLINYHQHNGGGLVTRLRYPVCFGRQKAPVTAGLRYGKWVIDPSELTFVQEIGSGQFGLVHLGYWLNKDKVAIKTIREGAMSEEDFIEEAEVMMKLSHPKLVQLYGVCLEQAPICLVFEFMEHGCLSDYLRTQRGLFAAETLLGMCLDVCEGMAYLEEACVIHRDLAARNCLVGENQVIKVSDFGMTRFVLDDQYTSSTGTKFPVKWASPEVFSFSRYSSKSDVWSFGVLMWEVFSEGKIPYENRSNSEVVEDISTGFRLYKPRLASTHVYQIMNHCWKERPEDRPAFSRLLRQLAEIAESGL
Put plainly: Selectivity interaction (KinomeScan (DiscoverX)) EUB0000695a ITK. To be noted: at 100 nM.

For data set [6], the target named is Tyrosine-protein kinase CSK (Homo sapiens) (UniProt P41240). As to the kind of experiment: Selectivity interaction (KinomeScan (DiscoverX)) EUB0000045b CSK.
The target in data set [7] is T2, Cyclin-dependent kinase-like 2 (Homo sapiens) (UniProt Q92772).
T2 sequence (whole entry): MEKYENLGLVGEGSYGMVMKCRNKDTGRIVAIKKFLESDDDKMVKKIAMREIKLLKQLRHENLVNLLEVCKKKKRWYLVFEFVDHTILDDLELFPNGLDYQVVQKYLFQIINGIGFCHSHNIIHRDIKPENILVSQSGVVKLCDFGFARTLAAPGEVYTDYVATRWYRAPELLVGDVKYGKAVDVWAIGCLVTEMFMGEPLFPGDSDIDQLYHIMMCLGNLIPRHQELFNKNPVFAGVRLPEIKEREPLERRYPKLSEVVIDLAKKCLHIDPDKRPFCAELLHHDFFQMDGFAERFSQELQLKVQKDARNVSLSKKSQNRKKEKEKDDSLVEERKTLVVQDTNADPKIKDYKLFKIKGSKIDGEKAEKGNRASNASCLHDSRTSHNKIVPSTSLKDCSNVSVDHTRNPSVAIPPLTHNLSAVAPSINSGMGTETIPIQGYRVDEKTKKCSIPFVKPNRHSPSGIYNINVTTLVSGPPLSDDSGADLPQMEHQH
Put plainly: Selectivity interaction (KINOMEscan (DiscoverX)) EUB0001868a CDKL2. As to conditions: at 1 µM.

Data set [8] concerns the target Leukocyte tyrosine kinase receptor (Homo sapiens, UniProt P29376). Put plainly: Selectivity interaction (KinomeScan (DiscoverX)) EUB0000607a LTK. As to conditions: at 10 µM.
The target of data set [9] is Tyrosine-protein kinase Fer (Homo sapiens) (UniProt P16591). As to the kind of experiment: Selectivity interaction (Kinase panel (Invitrogen)) EUB0000639a FER. To be noted: at 200 nM.
Data set [10] concerns the target Ribosomal protein S6 kinase alpha-3 (Homo sapiens, UniProt P51812). Put plainly: Selectivity interaction (ActivX KiNativ screen (kinase selectivity in THP-1 cell lysates)) EUB0000639a RPS6KA3. The data set is classed as subcellular. To be noted: lysate, at 5 µM.
Data set [11] concerns the target T3, Dual specificity mitogen-activated protein kinase kinase 6 (Homo sapiens) (UniProt P52564).
T3 sequence (whole entry): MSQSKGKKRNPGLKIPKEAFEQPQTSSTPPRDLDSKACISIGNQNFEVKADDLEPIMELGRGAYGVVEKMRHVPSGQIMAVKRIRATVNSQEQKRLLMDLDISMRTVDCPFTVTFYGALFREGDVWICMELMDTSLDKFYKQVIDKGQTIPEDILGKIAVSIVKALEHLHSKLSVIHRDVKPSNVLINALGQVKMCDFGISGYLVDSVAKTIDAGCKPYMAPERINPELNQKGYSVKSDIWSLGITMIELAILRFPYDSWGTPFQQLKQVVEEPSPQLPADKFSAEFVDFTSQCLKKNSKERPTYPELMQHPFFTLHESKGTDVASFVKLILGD
Put plainly: Selectivity interaction (KinomeScan (DiscoverX)) EUB0001619a MAP2K6. To be noted: at 1 µM.

The target of data set [12] is T4, Serine/threonine-protein kinase Nek11 (Homo sapiens) (UniProt Q8NG66).
T4 sequence (whole entry): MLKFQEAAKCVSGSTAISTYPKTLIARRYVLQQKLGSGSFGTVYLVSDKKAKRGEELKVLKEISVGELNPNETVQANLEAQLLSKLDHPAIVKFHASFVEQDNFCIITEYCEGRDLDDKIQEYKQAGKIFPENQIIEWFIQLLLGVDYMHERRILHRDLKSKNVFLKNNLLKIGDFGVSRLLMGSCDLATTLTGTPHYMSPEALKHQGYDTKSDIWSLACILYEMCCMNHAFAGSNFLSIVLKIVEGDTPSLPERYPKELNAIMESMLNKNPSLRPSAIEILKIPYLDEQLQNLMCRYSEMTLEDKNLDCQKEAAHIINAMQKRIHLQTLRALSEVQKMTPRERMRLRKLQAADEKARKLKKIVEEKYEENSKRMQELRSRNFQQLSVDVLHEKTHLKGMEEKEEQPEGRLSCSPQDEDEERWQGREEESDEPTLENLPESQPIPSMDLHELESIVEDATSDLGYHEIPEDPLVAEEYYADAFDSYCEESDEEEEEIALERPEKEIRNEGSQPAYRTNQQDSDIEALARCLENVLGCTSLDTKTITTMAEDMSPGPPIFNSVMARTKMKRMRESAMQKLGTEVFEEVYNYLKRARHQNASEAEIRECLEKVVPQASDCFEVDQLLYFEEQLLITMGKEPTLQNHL
As to the kind of experiment: Selectivity interaction (KinomeScan (DiscoverX)) EUB0001619a NEK11. As to conditions: at 1 µM.

For data set [13], the target named is Tyrosine-protein kinase Lck (Homo sapiens, UniProt P06239). Put plainly: Selectivity interaction (Enzymatic assay) EUB0001199aCl LCK.

Tyrosine-protein kinase CSK (Homo sapiens), sequence (P41240 2-450 limits assumed): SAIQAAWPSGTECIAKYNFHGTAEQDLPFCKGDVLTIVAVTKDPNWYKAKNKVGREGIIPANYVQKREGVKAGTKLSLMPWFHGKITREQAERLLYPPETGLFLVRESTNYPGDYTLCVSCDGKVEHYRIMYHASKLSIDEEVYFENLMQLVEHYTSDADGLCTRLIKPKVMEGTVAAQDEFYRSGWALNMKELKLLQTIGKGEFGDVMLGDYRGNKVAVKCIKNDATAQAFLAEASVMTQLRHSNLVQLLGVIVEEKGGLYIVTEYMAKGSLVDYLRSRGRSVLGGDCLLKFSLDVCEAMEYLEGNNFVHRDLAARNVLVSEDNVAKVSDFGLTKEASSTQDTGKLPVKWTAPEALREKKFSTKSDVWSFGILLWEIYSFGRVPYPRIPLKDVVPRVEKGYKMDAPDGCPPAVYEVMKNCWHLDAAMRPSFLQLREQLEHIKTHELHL
Dual specificity mitogen-activated protein kinase kinase 1, sequence (Q02750 whole entry): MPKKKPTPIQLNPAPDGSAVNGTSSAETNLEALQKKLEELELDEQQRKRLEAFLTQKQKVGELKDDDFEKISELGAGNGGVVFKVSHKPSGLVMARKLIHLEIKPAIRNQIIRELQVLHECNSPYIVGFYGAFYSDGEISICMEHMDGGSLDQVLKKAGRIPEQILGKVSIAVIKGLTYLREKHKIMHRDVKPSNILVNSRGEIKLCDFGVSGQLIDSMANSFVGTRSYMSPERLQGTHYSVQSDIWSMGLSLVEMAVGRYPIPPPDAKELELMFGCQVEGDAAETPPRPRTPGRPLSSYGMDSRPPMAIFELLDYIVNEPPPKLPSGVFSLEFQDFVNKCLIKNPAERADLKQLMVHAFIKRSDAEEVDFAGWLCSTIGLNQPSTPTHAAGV
Casein kinase I isoform delta, sequence (P48730 whole entry, looked up, canonical isoform): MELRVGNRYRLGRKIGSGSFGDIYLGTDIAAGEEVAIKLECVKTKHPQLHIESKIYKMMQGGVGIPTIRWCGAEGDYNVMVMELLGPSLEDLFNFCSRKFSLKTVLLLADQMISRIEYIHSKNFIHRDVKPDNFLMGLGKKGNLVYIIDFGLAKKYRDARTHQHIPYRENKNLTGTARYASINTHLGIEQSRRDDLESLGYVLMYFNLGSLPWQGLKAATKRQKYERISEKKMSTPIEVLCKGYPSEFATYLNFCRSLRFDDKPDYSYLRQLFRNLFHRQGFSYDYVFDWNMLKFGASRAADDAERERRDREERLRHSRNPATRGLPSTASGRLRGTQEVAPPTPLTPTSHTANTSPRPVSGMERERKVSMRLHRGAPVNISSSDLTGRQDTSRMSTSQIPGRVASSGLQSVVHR
Epidermal growth factor receptor (Homo sapiens), P00533 [L858R,T790M], sequence (P00533 whole entry T790M/L858R, looked up): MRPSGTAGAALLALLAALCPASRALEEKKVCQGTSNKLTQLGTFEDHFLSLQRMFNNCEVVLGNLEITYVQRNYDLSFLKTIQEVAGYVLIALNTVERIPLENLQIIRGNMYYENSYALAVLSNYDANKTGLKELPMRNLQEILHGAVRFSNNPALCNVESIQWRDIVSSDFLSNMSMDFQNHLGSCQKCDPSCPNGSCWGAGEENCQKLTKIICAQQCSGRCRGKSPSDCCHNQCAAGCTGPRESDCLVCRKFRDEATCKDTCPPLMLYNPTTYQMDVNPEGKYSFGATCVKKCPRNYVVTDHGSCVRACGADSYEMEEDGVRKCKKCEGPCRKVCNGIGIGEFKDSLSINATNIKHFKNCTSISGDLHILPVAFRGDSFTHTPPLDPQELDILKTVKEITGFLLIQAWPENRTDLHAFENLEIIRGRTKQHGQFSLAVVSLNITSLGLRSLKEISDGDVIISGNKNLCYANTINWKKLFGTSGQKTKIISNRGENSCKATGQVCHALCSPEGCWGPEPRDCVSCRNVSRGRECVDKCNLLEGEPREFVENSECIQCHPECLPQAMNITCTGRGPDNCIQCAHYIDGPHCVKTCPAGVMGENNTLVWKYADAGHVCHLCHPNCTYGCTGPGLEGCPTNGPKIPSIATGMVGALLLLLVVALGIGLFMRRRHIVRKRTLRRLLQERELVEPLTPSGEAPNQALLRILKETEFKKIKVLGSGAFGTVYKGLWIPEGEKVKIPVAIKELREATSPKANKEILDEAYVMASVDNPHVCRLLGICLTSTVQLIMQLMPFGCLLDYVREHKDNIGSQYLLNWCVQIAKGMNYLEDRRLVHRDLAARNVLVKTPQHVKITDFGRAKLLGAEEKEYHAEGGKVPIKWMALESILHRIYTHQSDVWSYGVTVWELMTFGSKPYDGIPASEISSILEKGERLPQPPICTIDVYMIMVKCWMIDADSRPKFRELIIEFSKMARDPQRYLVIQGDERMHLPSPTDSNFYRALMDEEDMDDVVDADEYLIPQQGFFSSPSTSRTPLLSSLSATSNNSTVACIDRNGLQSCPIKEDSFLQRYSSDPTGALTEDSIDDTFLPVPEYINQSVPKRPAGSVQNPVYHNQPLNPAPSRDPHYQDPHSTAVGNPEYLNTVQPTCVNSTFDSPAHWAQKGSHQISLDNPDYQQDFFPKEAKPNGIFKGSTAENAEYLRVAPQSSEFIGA
Leukocyte tyrosine kinase receptor, sequence (P29376 whole entry): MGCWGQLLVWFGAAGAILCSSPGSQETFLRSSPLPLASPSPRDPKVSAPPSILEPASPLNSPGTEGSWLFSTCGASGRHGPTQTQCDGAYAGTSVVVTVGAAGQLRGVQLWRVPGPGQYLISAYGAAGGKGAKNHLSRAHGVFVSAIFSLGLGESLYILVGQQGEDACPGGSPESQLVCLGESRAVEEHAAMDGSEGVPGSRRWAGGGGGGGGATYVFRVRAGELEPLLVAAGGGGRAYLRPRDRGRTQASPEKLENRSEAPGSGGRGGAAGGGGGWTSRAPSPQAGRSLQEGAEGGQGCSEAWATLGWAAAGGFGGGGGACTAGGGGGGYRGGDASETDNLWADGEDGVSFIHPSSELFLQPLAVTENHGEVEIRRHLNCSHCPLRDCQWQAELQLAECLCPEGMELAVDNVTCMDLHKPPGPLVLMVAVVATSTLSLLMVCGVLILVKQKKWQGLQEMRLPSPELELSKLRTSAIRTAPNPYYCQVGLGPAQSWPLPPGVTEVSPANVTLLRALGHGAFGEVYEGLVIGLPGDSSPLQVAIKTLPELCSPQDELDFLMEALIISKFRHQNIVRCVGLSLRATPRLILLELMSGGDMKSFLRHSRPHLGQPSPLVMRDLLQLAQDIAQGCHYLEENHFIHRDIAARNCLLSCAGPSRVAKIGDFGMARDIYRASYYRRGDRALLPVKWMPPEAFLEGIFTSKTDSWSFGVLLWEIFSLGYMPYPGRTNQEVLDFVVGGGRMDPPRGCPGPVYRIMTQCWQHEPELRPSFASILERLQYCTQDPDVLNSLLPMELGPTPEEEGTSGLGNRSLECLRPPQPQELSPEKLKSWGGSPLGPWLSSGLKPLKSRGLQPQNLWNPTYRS
KCNQ1, sequence (P51787 whole entry): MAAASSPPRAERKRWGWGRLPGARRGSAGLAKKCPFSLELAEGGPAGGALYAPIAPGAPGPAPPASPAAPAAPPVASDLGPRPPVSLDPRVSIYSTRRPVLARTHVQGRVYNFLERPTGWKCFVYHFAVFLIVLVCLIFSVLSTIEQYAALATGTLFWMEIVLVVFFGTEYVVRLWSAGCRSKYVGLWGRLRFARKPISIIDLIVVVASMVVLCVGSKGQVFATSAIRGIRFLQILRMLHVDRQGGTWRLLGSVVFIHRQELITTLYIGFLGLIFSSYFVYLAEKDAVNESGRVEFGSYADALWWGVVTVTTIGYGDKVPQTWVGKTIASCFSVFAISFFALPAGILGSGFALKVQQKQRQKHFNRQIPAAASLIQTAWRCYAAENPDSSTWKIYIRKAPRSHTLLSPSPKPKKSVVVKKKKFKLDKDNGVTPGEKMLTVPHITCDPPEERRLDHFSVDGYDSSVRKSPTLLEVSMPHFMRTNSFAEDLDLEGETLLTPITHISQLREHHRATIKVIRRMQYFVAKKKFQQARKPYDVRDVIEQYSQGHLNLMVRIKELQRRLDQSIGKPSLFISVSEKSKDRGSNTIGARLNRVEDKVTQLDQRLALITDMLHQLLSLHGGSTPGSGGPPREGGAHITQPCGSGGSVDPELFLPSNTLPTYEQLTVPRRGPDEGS
Ribosomal protein S6 kinase alpha-3, sequence (P51812 whole entry): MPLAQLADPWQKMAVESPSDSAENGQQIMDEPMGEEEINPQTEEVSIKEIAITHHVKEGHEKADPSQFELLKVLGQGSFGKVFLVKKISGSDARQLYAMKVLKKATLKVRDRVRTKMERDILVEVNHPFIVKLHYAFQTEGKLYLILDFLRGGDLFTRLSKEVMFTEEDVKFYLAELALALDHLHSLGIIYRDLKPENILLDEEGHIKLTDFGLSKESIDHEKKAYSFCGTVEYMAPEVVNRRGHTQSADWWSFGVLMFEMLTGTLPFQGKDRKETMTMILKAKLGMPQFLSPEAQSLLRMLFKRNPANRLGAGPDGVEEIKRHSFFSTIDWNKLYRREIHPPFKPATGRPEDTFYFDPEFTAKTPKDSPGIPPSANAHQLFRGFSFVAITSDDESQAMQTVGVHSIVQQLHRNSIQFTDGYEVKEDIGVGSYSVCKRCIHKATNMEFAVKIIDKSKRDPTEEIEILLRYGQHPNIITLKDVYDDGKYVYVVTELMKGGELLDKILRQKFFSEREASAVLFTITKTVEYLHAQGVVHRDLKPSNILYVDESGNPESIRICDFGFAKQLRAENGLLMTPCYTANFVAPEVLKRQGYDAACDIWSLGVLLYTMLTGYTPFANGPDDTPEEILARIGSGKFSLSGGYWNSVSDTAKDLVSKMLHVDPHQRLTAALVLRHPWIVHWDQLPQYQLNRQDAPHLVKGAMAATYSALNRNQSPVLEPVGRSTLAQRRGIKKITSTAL

As for `Cc1cc([C@@H](C)Nc2ccccc2C(=O)O)c2nc(N3CCOCC3)cc(=O)n2c1` [AZD-6482], the % of control in [1] came out at 99%.

The compound `CCC(=O)N1CCN(c2ccc(-n3c(=O)ccc4cnc5ccc(-c6cnc7ccccc7c6)cc5c43)cc2C(F)(F)F)CC1` registered a % of control in data set [2] of 94%.

In data set [3], `COc1cc(Nc2nc(C)cc(-c3cnn4nc(OC)ccc34)n2)cc(C(F)(F)F)c1` yielded a % of control of 90%.

For the compound `COc1cc(C(=O)N2CC[C@@H](O)[C@@H](N)C2)cc2nc(-c3cc4ccccc4n3CC3CC3)n(C)c12`, the XC50 on KCNQ1 was over 25.1 µM.

Turning to `Cc1cc(F)c(C(=O)Nc2cccc(-c3nncn3C(C)C)n2)cc1-n1cnc(C2CC2)c1`, the % of control in data set [4] and in data set [5] was 100% in each case.

For the compound `C=CC(=O)Nc1cc(-n2c(=O)ccc3cnc4ccc(-c5ccc(NS(C)(=O)=O)cc5)cc4c32)ccc1C`, the % of control in [6] (at 1 µM) was 99%; in data set [6] (at 10 µM), 75%.

Consider `Cc1cc(-c2ccnc(Nc3cnn(C)c3)n2)ccc1CNC(=O)N1CC(OC(C)C)C1`, for which, in [7], the % of control is 15%.

Turning to `CNC(=O)Nc1ccc(-c2nc(N3CC4CCC(C3)O4)c3cnn(C4CCC5(CC4)OCCO5)c3n2)cc1`, in [8], the % of control stood at 68%.

In the case of `CC[C@@H]1[C@H](F)C(=O)N[C@@H]1COc1nccc2cc(C(N)=O)c(OC)cc12` [ZIMLOVISERTIB], the % of inhibition was 9.46% in [9] and 2.9% in [10].

For `N#Cc1cccc(-c2c[nH]c3ncnc(N4CCOCC4)c23)c1`, the % of control in [11] was found to be 80%; in data set [12], 100%.

For orientation: IC50 means the midpoint of a concentration-inhibition curve. Consider `CN1Cc2nccc(-c3cn(C)nc3-c3ccc(F)cc3)c2C1=O`, for which, in [13], the IC50 came to 10.2 µM.
